Test results reported in patent US9790230B2 (Hoffmann-La Roche Inc., priority 2015, dated 2017).
Read-outs that look alike come from different tables or passages of the source.

How the values were obtained:
[1] = biological target: rat TAAR1 (Rattus norvegicus (Rat), UniProt Q923Y9); experiment: Radioligand binding assay on rat TAAR1;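 further: membranes from HEK293 cells stably transfected with rat TAAR1, tritiated TAAR1 radioligand, 1 h incubation at 4 °C, nonspecific binding determined with excess unlabeled ligand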
Sequence of rat TAAR1 (Q923Y9 whole entry): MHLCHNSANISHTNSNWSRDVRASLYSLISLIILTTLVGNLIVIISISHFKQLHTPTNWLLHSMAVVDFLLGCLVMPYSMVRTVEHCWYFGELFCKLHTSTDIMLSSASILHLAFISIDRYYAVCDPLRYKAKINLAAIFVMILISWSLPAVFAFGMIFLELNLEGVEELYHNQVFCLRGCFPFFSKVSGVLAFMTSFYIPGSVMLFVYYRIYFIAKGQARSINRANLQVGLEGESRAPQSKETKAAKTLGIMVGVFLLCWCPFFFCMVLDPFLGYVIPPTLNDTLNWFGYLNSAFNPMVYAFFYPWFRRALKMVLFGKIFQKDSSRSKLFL
Procedure: (§1) Membrane Preparation and Radioligand Binding.
HEK-293 cells stably expressing rat TAAR1 were maintained at 37° C. and 5% CO2 in DMEM high glucose medium, containing fetal calf serum (10%, heat inactivated for 30 min at 56° C.), penicillin/streptomycin (1%), and 375 μg/ml geneticin (Gibco). Cells were released from culture flasks using trypsin/EDTA, harvested, washed twice with ice-cold PBS (without Ca^2+ and Mg^2+), pelleted at 1'000 rpm for 5 min at 4° C., frozen and stored at −80° C. Frozen pellets were suspended in 20 ml HEPES-NaOH (20 mM, pH 7.4) containing 10 mM EDTA and homogenized with a Polytron (PT 6000, Kinematica) at 14′000 rpm for 20 s. The homogenate was centrifuged at 48'000×g for 30 min at 4° C. Subsequently, the supernatant was removed and discarded, and the pellet resuspended in 20 ml HEPES-NaOH (20 mM, pH 7.4) containing 0.1 mM EDTA using the Polytron (20 s at 14'000 rpm). This procedure was repeated and the final pellet resuspended in HEPES-NaOH containing 0.1 mM EDTA and homogenized using the Polytron. Typically, aliquots of 2 ml membrane portions were stored at −80° C. With each new membrane batch the dissociation constant (Kd) was determined via a saturation curve. […] Nonspecific binding was defined as the amount of 3 [H]—(S)-4-[(ethyl-phenyl-amino)-methyl]-4,5-dihydro-oxazol-2-ylamine bound in the presence of 10 M unlabeled ligand. All compounds were tested at a broad range of concentrations (10 pM to 10 μM) in duplicates. […] The 96 deep well plates were incubated for 1 hr at 4° C. Incubations were terminated by rapid filtration through Unifilter-96 plates (Packard Instrument Company) and glass filters GF/C (Perkin Elmer) presoaked for 1 hr in polyethylenimine (0.3%) and washed 3 times with 1 ml of cold binding buffer. After addition of 45 μl of Microscint 40 (PerkinElmer) the Unifilter-96 plate was sealed and after 1 hr the radioactivity counted using a TopCount Microplate Scintillation Counter (Packard Instrument Company).

[2] = biological target: mouse TAAR1 (Mus musculus (Mouse), UniProt Q923Y8); experiment: Radioligand binding assay on mouse TAAR1
Sequence of mouse TAAR1 (Q923Y8 whole entry): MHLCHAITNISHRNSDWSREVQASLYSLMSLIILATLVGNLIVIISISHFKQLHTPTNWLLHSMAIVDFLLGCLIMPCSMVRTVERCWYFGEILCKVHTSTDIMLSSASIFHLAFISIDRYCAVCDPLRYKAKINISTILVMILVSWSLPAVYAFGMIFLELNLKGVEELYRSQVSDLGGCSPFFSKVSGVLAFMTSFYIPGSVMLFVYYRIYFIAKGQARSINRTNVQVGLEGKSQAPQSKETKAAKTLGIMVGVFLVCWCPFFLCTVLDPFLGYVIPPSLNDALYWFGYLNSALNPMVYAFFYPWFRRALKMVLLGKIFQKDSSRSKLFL
Procedure: Radioligand Binding Assay on Mouse TAAR1
as §1
HEK-293 cells stably expressing mouse TAAR1 were maintained at 37° C. and 5% CO2 in DMEM high glucose medium, containing fetal calf serum (10%, heat inactivated for 30 min at 56° C.), penicillin/streptomycin (1%), and 375 μg/ml geneticin (Gibco). Cells were released from culture flasks using trypsin/EDTA, harvested, washed twice with ice-cold PBS (without Ca^2+ and Mg^2+), pelleted at 1'000 rpm for 5 min at 4° C., frozen and stored at −80° C. Frozen pellets were suspended in 20 ml HEPES-NaOH (20 mM, pH 7.4) containing 10 mM EDTA and homogenized with a Polytron (PT 6000, Kinematica) at 14'000 rpm for 20 s. The homogenate was centrifuged at 48'000×g for 30 min at 4° C. Subsequently, the supernatant was removed and discarded, and the pellet resuspended in 20 ml HEPES-NaOH (20 mM, pH 7.4) containing 0.1 mM EDTA using the Polytron (20 s at 14'000 rpm). This procedure was repeated and the final pellet resuspended in HEPES-NaOH containing 0.1 mM EDTA and homogenized using the Polytron. Typically, aliquots of 2 ml membrane portions were stored at −80° C. With each new membrane batch the dissociation constant (Kd) was determined via a saturation curve. The TAAR1 radioligand ^3[H]—(S)-4-[(ethyl-phenyl-amino)-methyl]-4,5-dihydro-oxazol-2-ylamine (described in WO 2008/098857) was used at a concentration equal to the calculated Kd value, that was usually around 0.7 nM, resulting in the binding of approximately 0.5% of the radioligand and a specific binding representing approximately 70% of the total binding. Nonspecific binding was defined as the amount of ^3[H]—(S)-4-[(ethyl-phenyl-amino)-methyl]-4,5-dihydro-oxazol-2-ylamine bound in the presence of 10 M unlabeled ligand. All compounds were tested at a broad range of concentrations (10 pM to 10 μM) in duplicates. […] The 96 deep well plates were incubated for 1 hr at 4° C. Incubations were terminated by rapid filtration through Unifilter-96 plates (Packard Instrument Company) and glass filters GF/C (Perkin Elmer) presoaked for 1 hr in polyethylenimine (0.3%) and washed 3 times with 1 ml of cold binding buffer. After addition of 45 μl of Microscint 40 (PerkinElmer) the Unifilter-96 plate was sealed and after 1 hr the radioactivity counted using a TopCount Microplate Scintillation Counter (Packard Instrument Company).

[3] = read-out: Ki (μM) rat, rat TAAR1, HEK-293 membranes, second value of cell mouse/rat
[4] = read-out: Ki (μM) mouse, mouse TAAR1, HEK-293 membranes, first value of cell mouse/rat

Ki [1]	Ki [2]	Structure (SMILES)	Ki [1, 3]	Ki [2, 4]
0.19 µM	0.636 µM	Fc1ccc(CNc2ccc([C@H]3O[C@@H]4CN[C@H]3C4)cc2)cc1 [Example 40, N-[(4-Fluorophenyl)methyl]-4-[(1S,3R,4S)-2-oxa-5-azabicyclo[2.2.1]heptan-3-yl]aniline]	–	–
2.3 µM	0.313 µM	Cc1cn[nH]c1C(=O)Nc1ccc([C@H]2O[C@@H]3CN[C@H]2C3)cc1 [Example 47, 4-Methyl-N-[4-[(1S,3R,4S)-2-oxa-5-azabicyclo[2.2.1]heptan-3-yl]phenyl]-1H-pyrazole-5-carboxamide]	–	–
0.0702 µM	2.07 µM	COCCCNc1ccc([C@H]2O[C@@H]3CN[C@H]2C3)cc1 [Example 65, N-(3-Methoxypropyl)-4-[(1S,3R,4S)-2-oxa-5-azabicyclo[2.2.1]heptan-3-yl]aniline]	–	–
0.0842 µM	0.0047 µM	CCc1n[nH]c(C(=O)Nc2ccc([C@@H]3O[C@H]4CN[C@@H]3C4)cc2)c1Cl [Example 76, 4-Chloro-3-ethyl-N-[4-[(1R,3S,4R)-2-oxa-5-azabicyclo[2.2.1]heptan-3-yl]phenyl]-1H-pyrazole-5-carboxamide]	–	–
0.0179 µM	0.0031 µM	CCCc1n[nH]c(C(=O)Nc2ccc([C@@H]3O[C@H]4CN[C@@H]3C4)cc2)c1Cl [Example 68, 4-Chloro-N-[4-[(1R,3S,4R)-2-oxa-5-azabicyclo[2.2.1]heptan-3-yl]phenyl]-3-propyl-1H-pyrazole-5-carboxamide]	–	–
0.0029 µM	0.986 µM	O=C(Nc1ccc(C(F)(F)F)cc1)Nc1cccc([C@@H]2O[C@H]3CN[C@@H]2C3)c1 [Example 3, 1-[3-[(1R,3S,4R)-2-Oxa-5-azabicyclo[2.2.1]heptan-3-yl]phenyl]-3-[4-(trifluoromethyl)phenyl]urea]	–	–
0.0192 µM	1.33 µM	O=C(Nc1cccc(Cl)c1)Nc1cccc([C@@H]2O[C@H]3CN[C@@H]2C3)c1 [Example 5, 1-(3-Chlorophenyl)-3-[3-[(1R,3S,4R)-2-oxa-5-azabicyclo[2.2.1]heptan-3-yl]phenyl]urea]	–	–
–	–	CCc1n[nH]c(C(=O)Nc2ccc([C@@H]3O[C@H]4CN[C@@H]3C4)cc2)c1C [Example 67, 3-Ethyl-4-methyl-N-[4-[(1R,3S,4R)-2-oxa-5-azabicyclo[2.2.1]heptan-3-yl]phenyl]-11H-pyrazole-5-carboxamide]	0.503 µM	0.01 µM
0.344 µM	0.0128 µM	CCc1n[nH]c(C(=O)Nc2ccc([C@H]3O[C@@H]4CN[C@H]3C4)cc2)c1C [Example 50, 3-Ethyl-4-methyl-N-[4-[(1S,3R,4S)-2-oxa-5-azabicyclo[2.2.1]heptan-3-yl]phenyl]-1H-pyrazole-5-carboxamide]	–	–
0.106 µM	0.0044 µM	O=C(Nc1ccc([C@@H]2O[C@H]3CN[C@@H]2C3)cc1)c1ccc(Cl)cc1 [Example 7, 4-Chloro-N-[4-[(1R,3S,4R)-2-oxa-5-azabicyclo[2.2.1]heptan-3-yl]phenyl]benzamide]	–	–
0.0848 µM	0.0111 µM	O=C(Nc1ccc([C@H]2O[C@@H]3CN[C@H]2C3)cc1)c1ccc(C(F)(F)F)nc1 [Example 44, N-[4-[(1S,3R,4S)-2-Oxa-5-azabicyclo[2.2.1]heptan-3-yl]phenyl]-6-(trifluoromethyl)pyridine-3-carboxamide]	–	–
0.0458 µM	0.0034 µM	O=C(Nc1ccc(F)cc1)c1ccc([C@H]2O[C@@H]3CN[C@H]2C3)cc1 [Example 57, N-(4-Fluorophenyl)-4-[(1S,3R,4S)-2-oxa-5-azabicyclo[2.2.1]heptan-3-yl]benzamide]	–	–
0.21 µM	0.0042 µM	CCOc1n[nH]c(C(=O)Nc2ccc([C@H]3O[C@@H]4CN[C@H]3C4)cc2)c1Cl [Example 45, 4-Chloro-3-ethoxy-N-[4-[(1S,3R,4S)-2-oxa-5-azabicyclo[2.2.1]heptan-3-yl]phenyl]-1H-pyrazole-5-carboxamide]	–	–
0.0803 µM	0.0042 µM	CCCCc1cc(C(=O)Nc2ccc([C@@H]3O[C@H]4CN[C@@H]3C4)cc2)[nH]n1 [Example 93, 3-Butyl-N-[4-[(1R,3S,4R)-2-oxa-5-azabicyclo[2.2.1]heptan-3-yl]phenyl]-1H-pyrazole-5-carboxamide]	–	–
0.0807 µM	0.0057 µM	CC(C)Cc1cc(C(=O)Nc2ccc([C@@H]3O[C@H]4CN[C@@H]3C4)cc2)[nH]n1 [Example 101, 3-Isobutyl-N-[4-[(1R,3S,4R)-2-oxa-5-azabicyclo[2.2.1]heptan-3-yl]phenyl]-1H-pyrazole-5-carboxamide]	–	–
0.0135 µM	0.0054 µM	O=C(Nc1ccc([C@@H]2O[C@H]3CN[C@@H]2C3)cc1)c1ccc(C(F)(F)F)cn1 [Example 71, N-[4-[(1R,3S,4R)-2-Oxa-5-azabicyclo[2.2.1]heptan-3-yl]phenyl]-5-(trifluoromethyl)pyridine-2-carboxamide]	–	–
0.276 µM	0.0291 µM	FC(F)(F)c1cnc(Nc2ccc([C@@H]3O[C@H]4CN[C@@H]3C4)cc2)cn1 [Example 30, N-[4-[(1R,3S,4R)-2-Oxa-5-azabicyclo[2.2.1]heptan-3-yl]phenyl]-5-(trifluoromethyl)pyrazin-2-amine]	–	–
0.167 µM	0.562 µM	Clc1ccc(CNc2ccc([C@H]3O[C@@H]4CN[C@H]3C4)cc2)cc1 [Example 38, N-[(4-Chlorophenyl)methyl]-4-[(1S,3R,4S)-2-oxa-5-azabicyclo[2.2.1]heptan-3-yl]aniline]	–	–
0.178 µM	0.0043 µM	CCOc1ccc(C(=O)Nc2ccc([C@@H]3O[C@H]4CN[C@@H]3C4)cc2)cc1 [Example 28, 4-Ethoxy-N-[4-[(1R,3S,4R)-2-oxa-5-azabicyclo[2.2.1]heptan-3-yl]phenyl]benzamide]	–	–
1.35 µM	0.0114 µM	CCCc1c(Cl)c(C(=O)Nc2ccc([C@H]3O[C@@H]4CN[C@H]3C4)cc2)nn1C [Example 48, 4-Chloro-1-methyl-N-[4-[(1S,3R,4S)-2-oxa-5-azabicyclo[2.2.1]heptan-3-yl]phenyl]-5-propyl-pyrazole-3-carboxamide]	–	–
–	–	CC(C)Cc1n[nH]c(C(=O)Nc2ccc([C@@H]3O[C@H]4CN[C@@H]3C4)cc2)c1F [Example 100, 4-Fluoro-3-isobutyl-N-[4-[(1R,3S,4R)-2-oxa-5-azabicyclo[2.2.1]heptan-3-yl]phenyl]-11H-pyrazole-5-carboxamide]	0.0278 µM	0.0059 µM
0.857 µM	0.0177 µM	O=C(COCC(F)(F)F)Nc1ccc([C@@H]2O[C@H]3CN[C@@H]2C3)cc1 [Example 73, N-[4-[(1R,3S,4R)-2-Oxa-5-azabicyclo[2.2.1]heptan-3-yl]phenyl]-2-(2,2,2-trifluoroethoxy)acetamide]	–	–
–	–	O=C(Nc1ccc([C@@H]2O[C@H]3CN[C@@H]2C3)cc1)c1[nH]nc(C2CC2)c1F [Example 77, 3-Cyclopropyl-4-fluoro-N-[4-[(1R,3S,4R)-2-oxa-5-azabicyclo[2.2.1]heptan-3-yl]phenyl]-11H-pyrazole-5-carboxamide]	0.137 µM	0.0048 µM
10 µM	0.337 µM	O=C(Nc1ccc([C@H]2O[C@@H]3CN[C@H]2C3)cc1)c1ccnc(C(F)(F)F)n1 [Example 42, N-[4-[(1S,3R,4S)-2-Oxa-5-azabicyclo[2.2.1]heptan-3-yl]phenyl]-2-(trifluoromethyl)pyrimidine-4-carboxamide]	–	–

Structure (SMILES)	Ki [1]	Ki [2]	Ki [1, 3]	Ki [2, 4]
O=C(Nc1ccc([C@H]2O[C@@H]3CN[C@H]2C3)cc1)c1cnc(C2CC2)nc1 [Example 18, 2-Cyclopropyl-N-[4-[(1S,3R,4S)-2-oxa-5-azabicyclo[2.2.1]heptan-3-yl]phenyl]pyrimidine-5-carboxamide]	2.03 µM	0.038 µM	–	–
c1ccc([C@H]2O[C@@H]3CN[C@H]2C3)cc1 [Example 9, (1S,3R,4S)-3-Phenyl-2-oxa-5-azabicyclo[2.2.1]heptane]	0.369 µM	0.0349 µM	–	–
Clc1ccc(Nc2ccc([C@@H]3O[C@H]4CN[C@@H]3C4)cc2)nc1 [Example 24, 5-Chloro-N-[4-[(1R,3S,4R)-2-oxa-5-azabicyclo[2.2.1]heptan-3-yl]phenyl]pyridin-2-amine]	0.0318 µM	0.0033 µM	–	–
O=C(Nc1ccc([C@@H]2O[C@H]3CN[C@@H]2C3)cc1)c1ccnc(C(F)(F)F)n1 [Example 81, N-[4-[(1R,3S,4R)-2-Oxa-5-azabicyclo[2.2.1]heptan-3-yl]phenyl]-2-(trifluoromethyl)pyrimidine-4-carboxamide]	0.189 µM	0.0271 µM	–	–
Fc1ccccc1[C@@H]1O[C@H]2CN[C@@H]1C2 [Example 106, (1R,3S,4R)-3-(2-Fluorophenyl)-2-oxa-5-azabicyclo[2.2.1]heptane]	0.836 µM	1.03 µM	–	–
O=C(Nc1ccc(Cl)cc1)c1ccc([C@@H]2O[C@H]3CN[C@@H]2C3)cc1 [Example 85]	1.08 µM	0.0164 µM	–	–
Brc1ccc([C@@H]2O[C@H]3CN[C@@H]2C3)cc1 [Example 54, (1R,3S,4R)-3-(4-Bromophenyl)-2-oxa-5-azabicyclo[2.2.1]heptane]	0.0346 µM	0.145 µM	–	–
Brc1ccc([C@H]2O[C@@H]3CN[C@H]2C3)cc1 [Example 53, (1S,3R,4S)-3-(4-Bromophenyl)-2-oxa-5-azabicyclo[2.2.1]heptane]	0.0052 µM	0.0034 µM	–	–
O=C(Nc1cccc([C@@H]2O[C@H]3CN[C@@H]2C3)c1)c1ccc(Cl)cc1 [Example 2, 4-Chloro-N-[3-[(1R,3S,4R)-2-oxa-5-azabicyclo[2.2.1]heptan-3-yl]phenyl]benzamide]	0.0794 µM	2.51 µM	–	–
O=C(Nc1ccc([C@@H]2O[C@H]3CN[C@@H]2C3)cc1)c1ccc(OCC(F)(F)F)nc1 [Example 27, N-[4-[(1R,3S,4R)-2-Oxa-5-azabicyclo[2.2.1]heptan-3-yl]phenyl]-6-(2,2,2-trifluoroethoxy)pyridine-3-carboxamide]	0.0417 µM	0.0097 µM	–	–
CCCCNc1ccc([C@H]2O[C@@H]3CN[C@H]2C3)cc1 [Example 41, N-Butyl-4-[(1S,3R,4S)-2-oxa-5-azabicyclo[2.2.1]heptan-3-yl]aniline]	–	0.0222 µM	2.83 µM	–
